Values of other authors as cited in publication PMC12661886, “A phase 1/2 study of DS-1594 menin inhibitor in relapsed/refractory acute leukemias” (Journal of Hematology & Oncology, 2025).
One block for each compound: values may come before it.

Tests used:
QT and QTc intervals = tested on: QT and QTc intervals; set-up: method as in Investigator Brochure; details: predicted by exposure-response analysis; ref Investigator Brochure
[1] = tested on: KMT2A-r and NPM1mut R/R AML; set-up: method as in doi:10.1182/blood-2024-194827
[2] = tested on: cell lines of KMT2A-r leukemia harboring MEN1-M327I or MEN1-T349M; set-up: method as in PMID 38905635
[3] = tested on: MV4;11 cells harboring KMT2A-r with CRISPR-Cas9 induced menin mutations; set-up: method as in doi:10.1182/blood-2024-208887; details: menin mutations except M327
[4] = tested on: R/R NPM1mut, NUP98-r, KMT2A-r AML; set-up: method as in earlier work
[5] = tested on: R/R KMT2A-r ALL/AML/MPAL or R/R NPM1mut AML

Structure (SMILES): COc1cc(-c2ccc(CN[C@H]3C[C@@H](O)[C@@H](N(C)c4ncnc5sc(CC(F)(F)F)cc45)C3)cc2)nnc1OC [DS-1594a]
- plasma concentration to induce QTc interval prolongation by 10 milliseconds (QT and QTc intervals): around 1000 ng/mL

- All grade DS, patients [1]: 10.7%
- Grade 3 or higher DS, patients [1]: about 7%
Structure (SMILES): C=C1C[C@@H]2CC[C@H]1[C@@H](C(=O)N1CCC3(CC1)CN(c1ncncc1Oc1ccc(F)cc1C(=O)N(C(C)C)C(C)C)C3)N2 [Enzomenib]
- CR + CRh rate, KMT2A-r R/R AML ([1]; 200 mg or 300 mg BID): 30%
- CR + CRh rate, NPM1mut R/R AML ([1]; 200 mg or 300 mg BID): 47%
- ORR, KMT2A-r R/R AML ([1]; 200 mg or 300 mg BID): 65%
- ORR, NPM1mut R/R AML ([1]; 200 mg or 300 mg BID): 59%

- IC50 [3]: 3.3 nM
Structure (SMILES): CCN(C(=O)c1cc(F)ccc1Oc1nncnc1N1CCC2(C1)CN([C@H](CCCN(C)CCOC)C(C)C)C2)C(C)C [bleximenib]
- efficacy in menin-mutant cell lines [2]: showed efficacy

- grade 3 or higher differentiation syndrome, patients ([5]; AUGMENT-101): 16%
- overall DS rate ([5]; AUGMENT-101 study): about 28%
Structure (SMILES): CCN(C(=O)c1cc(F)ccc1Oc1cncnc1N1CC2(CCN(C[C@H]3CC[C@H](NS(=O)(=O)CC)CC3)CC2)C1)C(C)C [revumenib]
- CR/CRh rate ([4]; SAVE regimen): 48%
- consolidated with an HSCT ([4]; SAVE regimen): 39%
- median duration of CR/CRh ([4]; about 9 months median follow-up): not achieved
- ORR ([4]; combination with oral decitabine-cedazuridine and venetoclax): 82%
- grade 3 or higher QTc prolongation, patients [5]: 14%
- median DOR, CR + CRh [5]: 6.4 months
- median DOR, KMT2A-r acute leukemias with CR/CRh [5]: about 6 months
- median duration of response (DOR), patients with an ORR [5]: 4.3 months
- CR + CRh rate ([5]; AUGMENT 101): 23%
- overall response rate (ORR) ([5]; AUGMENT 101): 63%

- all-grade DS (R/R AML; KOMET phase 1a and 1b (n = 83)): 21%
- grade 3 DS (R/R AML; KOMET phase 1a and 1b (n = 83)): 14%
- IC50 [3]: 22.2 nM
Structure (SMILES): CNc1nc(NC2CCN(Cc3ccc4c(cc(C#N)n4C[C@H](C)N4CCN(S(C)(=O)=O)CC4)c3C)CC2)c2cc(CC(F)(F)F)sc2n1 [ziftomenib]
- median DOR (R/R AML): 6.6 months
- responses in the dose finding phase (R/R AML): no significant responses were observed
- CR/CRh rate, R/R NPM1mut AML (R/R AML; 600 mg dose): 35%
- patients achieving CR/CRh, NPM1mut AML previously treated with venetoclax (R/R AML; 600 mg dose): 5/7
- CR/CRh rate (R/R AML; RP2D 600 mg/day, phase 1b): 25%
